Data from PubChem BioAssay (NCI).
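Interpolation was linear, between the two tested concentrations surrounding the appropriate level; five concentrations were tested over 48 hours in 96-well plates. GI50 is the concentration that inhibits growth by half. The concentration for full growth arrest is given as TGI.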

What was measured:
Test in all cases: DTP human tumour cell line panel, 48 h
HOP-62 NSCLC = tested on: HOP-62 NSCLC
UACC-62 melanoma = tested on: UACC-62 melanoma
NCI-H522 lung = tested on: NCI-H522 lung
OVCAR-3 ovarian = tested on: OVCAR-3 ovarian
T-47D breast = tested on: T-47D breast
LOX IMVI melanoma = tested on: LOX IMVI melanoma
M14 melanoma = tested on: M14 melanoma
IGROV1 ovarian = tested on: IGROV1 ovarian
SN12C renal = tested on: SN12C renal
NCI-H226 lung = tested on: NCI-H226 lung
SK-MEL-2 melanoma = tested on: SK-MEL-2 melanoma
786-0 renal = tested on: 786-0 renal
OVCAR-4 ovarian = tested on: OVCAR-4 ovarian
EKVX NSCLC = tested on: EKVX NSCLC
COLO 205 colon = tested on: COLO 205 colon
BT-549 breast = tested on: BT-549 breast
NCI/ADR-RES ovarian = tested on: NCI/ADR-RES ovarian
SNB-19 CNS = tested on: SNB-19 CNS
MOLT-4 leukemia = tested on: MOLT-4 leukemia
HOP-92 NSCLC = tested on: HOP-92 NSCLC
HS 578T breast = tested on: HS 578T breast
SF-539 CNS = tested on: SF-539 CNS
SW-620 colon = tested on: SW-620 colon
ACHN renal = tested on: ACHN renal
KM12 colon = tested on: KM12 colon
MDA-MB-231 breast = tested on: MDA-MB-231 breast
UO-31 renal = tested on: UO-31 renal
OVCAR-5 ovarian = tested on: OVCAR-5 ovarian
CCRF-CEM leukemia = tested on: CCRF-CEM leukemia
U251 CNS = tested on: U251 CNS
HL-60(TB) leukemia = tested on: HL-60(TB) leukemia
UACC-257 melanoma = tested on: UACC-257 melanoma
RXF 393 renal = tested on: RXF 393 renal
SR leukemia = tested on: SR leukemia
SF-295 CNS = tested on: SF-295 CNS
OVCAR-8 ovarian = tested on: OVCAR-8 ovarian
HCC-2998 colon = tested on: HCC-2998 colon
DU-145 prostate = tested on: DU-145 prostate
SK-MEL-28 melanoma = tested on: SK-MEL-28 melanoma
A498 renal = tested on: A498 renal
CAKI-1 renal = tested on: CAKI-1 renal
RPMI-8226 leukemia = tested on: RPMI-8226 leukemia
NCI-H23 lung = tested on: NCI-H23 lung
SF-268 CNS = tested on: SF-268 CNS
SK-MEL-5 melanoma = tested on: SK-MEL-5 melanoma
HCT-116 colon = tested on: HCT-116 colon
HT29 colon = tested on: HT29 colon
HCT-15 colon = tested on: HCT-15 colon
SNB-75 CNS = tested on: SNB-75 CNS
MCF7 breast = tested on: MCF7 breast
TK-10 renal = tested on: TK-10 renal
PC-3 prostate = tested on: PC-3 prostate
MALME-3M melanoma = tested on: MALME-3M melanoma
MDA-MB-435 = tested on: MDA-MB-435
A549 NSCLC = tested on: A549 NSCLC
NCI-H460 lung = tested on: NCI-H460 lung
SK-OV-3 ovarian = tested on: SK-OV-3 ovarian

In the case of `COc1cc2c3c(n(CCCNC4CCCCC4)c(=O)c2cc1OC)-c1cc2c(cc1C3=O)OCO2`, the GI50 (HOP-62 NSCLC) is reported as 15.8 µM, the TGI (HOP-62 NSCLC) is reported as 43.3 µM and the GI50 (UACC-62 melanoma) is reported as 27 µM. It also gave a TGI (UACC-62 melanoma) greater than 66.5 µM, a GI50 (NCI-H522 lung) of 10.8 µM and a TGI (NCI-H522 lung) of 59.2 µM. The GI50 (OVCAR-3 ovarian) was 10.8 µM, the TGI (OVCAR-3 ovarian) was 33 µM and the GI50 (T-47D breast) was 20.8 µM. The TGI (T-47D breast) was 61.4 µM, the GI50 (LOX IMVI melanoma) was 1.43 µM and the TGI (LOX IMVI melanoma) was 3 µM. It also gave a GI50 (M14 melanoma) of 18.3 µM, a TGI (M14 melanoma) of 39.2 µM and a GI50 (IGROV1 ovarian) of 15.4 µM. It also gave a TGI (IGROV1 ovarian) greater than 100 µM, a GI50 (SN12C renal) of 18.2 µM and a TGI (SN12C renal) greater than 57.8 µM. The GI50 (NCI-H226 lung) was 24.8 µM, the TGI (NCI-H226 lung) was greater than 67 µM and the GI50 (SK-MEL-2 melanoma) was greater than 100 µM. It also gave a TGI (SK-MEL-2 melanoma) greater than 100 µM, a GI50 (786-0 renal) of 1.73 µM and a TGI (786-0 renal) of 3.19 µM. It also gave a GI50 (OVCAR-4 ovarian) of 10.9 µM, a TGI (OVCAR-4 ovarian) of 23.9 µM and a GI50 (EKVX NSCLC) of 14.3 µM. It also gave a TGI (EKVX NSCLC) greater than 63.8 µM, a GI50 (COLO 205 colon) of 8 µM and a TGI (COLO 205 colon) greater than 54 µM. The GI50 (BT-549 breast) was 15.2 µM, the TGI (BT-549 breast) was 31.9 µM and the GI50 (NCI/ADR-RES ovarian) was 1.78 µM. The TGI (NCI/ADR-RES ovarian) was 4.45 µM, the GI50 (SNB-19 CNS) was 26.2 µM and the TGI (SNB-19 CNS) was greater than 76.5 µM. It also gave a GI50 (MOLT-4 leukemia) of 0.354 µM, a TGI (MOLT-4 leukemia) of 3.93 µM and a GI50 (HOP-92 NSCLC) of 15.5 µM. The TGI (HOP-92 NSCLC) was 42 µM, the GI50 (HS 578T breast) was 49 µM and the TGI (HS 578T breast) was greater than 100 µM. It also gave a GI50 (SF-539 CNS) of 4.57 µM, a TGI (SF-539 CNS) of 8.91 µM and a GI50 (SW-620 colon) of 1.44 µM. For the same compound, the TGI (SW-620 colon) was 4.18 µM, the GI50 (ACHN renal) was 8.95 µM and the TGI (ACHN renal) was 33.5 µM. It also gave a GI50 (KM12 colon) of 11.7 µM, a TGI (KM12 colon) greater than 59 µM and a GI50 (MDA-MB-231 breast) of 2.18 µM. For the same compound, the TGI (MDA-MB-231 breast) was 5.13 µM, the GI50 (UO-31 renal) was 13.3 µM and the TGI (UO-31 renal) was 27.3 µM. The GI50 (OVCAR-5 ovarian) was 20.3 µM, the TGI (OVCAR-5 ovarian) was 48.4 µM and the GI50 (CCRF-CEM leukemia) was 0.319 µM. The TGI (CCRF-CEM leukemia) was 13.7 µM, the GI50 (U251 CNS) was 7.85 µM and the TGI (U251 CNS) was 51.6 µM. For the same compound, the GI50 (HL-60(TB) leukemia) was 1.62 µM, the TGI (HL-60(TB) leukemia) was 4.87 µM and the GI50 (UACC-257 melanoma) was 18.9 µM. For the same compound, the TGI (UACC-257 melanoma) was 43 µM, the GI50 (RXF 393 renal) was 9.22 µM and the TGI (RXF 393 renal) was 37.8 µM. The GI50 (SR leukemia) was 0.245 µM, the TGI (SR leukemia) was 4.17 µM and the GI50 (SF-295 CNS) was 12.1 µM. For the same compound, the TGI (SF-295 CNS) was greater than 58.1 µM, the GI50 (OVCAR-8 ovarian) was 18 µM and the TGI (OVCAR-8 ovarian) was 36.6 µM. The GI50 (HCC-2998 colon) was 3.69 µM, the TGI (HCC-2998 colon) was 8.34 µM and the GI50 (DU-145 prostate) was 1.83 µM. For the same compound, the TGI (DU-145 prostate) was 3.74 µM, the GI50 (SK-MEL-28 melanoma) was 22.7 µM and the TGI (SK-MEL-28 melanoma) was greater than 55.7 µM. The GI50 (A498 renal) was 20.8 µM, the TGI (A498 renal) was 49.1 µM and the GI50 (CAKI-1 renal) was 7.69 µM. For the same compound, the TGI (CAKI-1 renal) was 22.9 µM, the GI50 (RPMI-8226 leukemia) was 1.82 µM and the TGI (RPMI-8226 leukemia) was 6.39 µM. The GI50 (NCI-H23 lung) was 1.86 µM, the TGI (NCI-H23 lung) was 4.22 µM and the GI50 (SF-268 CNS) was 9.87 µM. It also gave a TGI (SF-268 CNS) greater than 69 µM, a GI50 (SK-MEL-5 melanoma) of 18.4 µM and a TGI (SK-MEL-5 melanoma) of 36.3 µM. It also gave a GI50 (HCT-116 colon) of 1.59 µM, a TGI (HCT-116 colon) of 3.03 µM and a GI50 (HT29 colon) of 1.82 µM. For the same compound, the TGI (HT29 colon) was 3.66 µM, the GI50 (HCT-15 colon) was 1.62 µM and the TGI (HCT-15 colon) was 3.21 µM. For the same compound, the GI50 (SNB-75 CNS) was 11.9 µM, the TGI (SNB-75 CNS) was 25.5 µM and the GI50 (MCF7 breast) was 1.2 µM. It also gave a TGI (MCF7 breast) of 2.84 µM, a GI50 (TK-10 renal) of 20.9 µM and a TGI (TK-10 renal) of 36.7 µM. It also gave a GI50 (PC-3 prostate) of 16.8 µM, a TGI (PC-3 prostate) of 85.6 µM and a GI50 (MALME-3M melanoma) of 14.4 µM. For the same compound, the TGI (MALME-3M melanoma) was 29.1 µM, the GI50 (MDA-MB-435) was 14.7 µM and the TGI (MDA-MB-435) was 34.3 µM. It also gave a GI50 (A549 NSCLC) of 5.87 µM, a TGI (A549 NSCLC) of 18.5 µM and a GI50 (NCI-H460 lung) of 1.52 µM. For the same compound, the TGI (NCI-H460 lung) was 3.24 µM, the GI50 (SK-OV-3 ovarian) was 20.8 µM and the TGI (SK-OV-3 ovarian) was 51.1 µM.
